From patent publication US11242351B2, “Tricyclic inhibitors of the BCL6 BTB domain protein-protein interaction and uses thereof” (priority 2017, dated 2022)
Where two headings read alike, the source gives them in different places.

Legend:
[1] = biological target: BCL6 BTB domain (biotin-thrombin-BCL6 amino acids 1-129) (Homo sapiens (Human), UniProt P41182); assay: Surface Plasmon Resonance (SPR) assay; format: binding; conditions: Biacore T200, single cycle kinetic analysis
Description: Surface Plasmon Resonance (SPR) Assay
SPR studies were performed using a Biacore™ T200 instrument (GE Health Sciences Inc.). […] The Biacore flow rate was set at 100 μl/min. […] Curve fitting and KD calculations were performed with the Biacore T200 Evaluation software (GE Health Sciences Inc).

[2] = tested on: BCL6 reporter construct in SuDHL4-3×BCL6-TK-Luc cells; assay: Cell-based luciferase assay (BCL6 reporter); conditions: 48 h, read-out: Luc IC50
In short: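 SuDHL4 cells stably carrying a 3×BCL6-site TK-promoter firefly luciferase reporter, 15,000 cells/well, dosed over 10 concentrations (top 10 μM) and cultured two days at 37° C, 5% CO2. Luciferase luminescence read after room-temperature equilibration with neolite reagent.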

[3] = tested on: Karpas422 cells; assay: Tumor cell growth inhibition assay; format: cell-based; conditions: Homo sapiens, KARPAS-422, 144 h, read-out: GI Karpas EC50
In short: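 Karpas422 cells were dosed over a 10-point concentration range (top 5 μM) and grown 6 days at 37 °C, 5% CO2, in Alpha-MEM with 10% FBS. Viability was read as ATPlite luminescence.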

[4] = SuDHL4-3×BCL6-TK-Luc cells, two days
[5] = Karpas422 cells, six days, ATPlite

For `CC1Cc2nc3c(c(-c4cc(C(N)=O)c(O)c5c4OCO5)cn3CC(=O)Nc3cc(N4CCOC[C@@H]4C)ncc3Cl)c(=O)n2C1` (stereo partly drawn) [I-88, 7-(1-(2-((5-chloro-2-((S)-3-methylmorpho-lino)pyridin-4-yl)amino)-2-oxoethyl)-7-methyl-4-oxo-4,6,7,8-tetrahydro-1H-dipyrrolo[1,2-a:2′,3′-d]pyrimidin-3-yl)-4-hydroxybenzo[d][1,3] dioxole-5-carboxamide], which Kd [1] is on record?
Its Kd is 0.00214 µM.

And the IC50 [2, 4]?
Its IC50 is 0.0394 µM.

What about the EC50 [3, 5] of the same compound?
The EC50 was 0.0176 µM.

For `CCN1CCN(c2cc(NC(=O)Cn3cc(-c4cc(C(N)=O)c(O)c5c4OCO5)c4c(=O)n5c(nc43)CC(C)C5)c(Cl)c(F)n2)[C@@H](C)C1` (stereo partly drawn) [I-89, 7-(1-(2-((3-chloro-6-((S)-4-ethyl-2-methyl-piperazin-1-yl)-2-fluoropyridin-4-yl)amino)-2-oxoethyl)-7-methyl-4-oxo-4,6,7,8-tetrahydro-1H-dipyrrolo[1,2-a:2′,3′-d]pyrimidin-3-yl)-4-hydroxybenzo[d][1,3] dioxole-5-carboxamide], which Kd [1] is on record?
Its Kd is 0.00136 µM.

What about the IC50 [2, 4] of the same compound?
The IC50 was 0.0129 µM.

What about the EC50 [3, 5] of the same compound?
The EC50 was 0.0111 µM.

What does the source list for `C[C@H]1CNCCN1c1cc(NC(=O)Cn2cc(-c3cc(C(N)=O)c(O)c4c3OCO4)c3c(=O)n4c(nc32)CCC4)c(Cl)c(F)n1` [I-90, (S)-7-(1-(2-((3-chloro-2-fluoro-6-(2-methyl-piperazin-1-yl)pyridin-4-yl)amino)-2-oxo-ethyl)-4-oxo-4,6,7,8-tetrahydro-1H-dipyrrolo [1,2-a:2′,3′-d]pyrimidin-3-yl)-4-hydroxybenzo [d][1,3]dioxole-5-carboxamide]?
Kd [1]: 0.0007 µM; IC50 [2, 4]: 0.0235 µM; EC50 [3, 5]: 0.022 µM

Which Kd [1] does the source give for `COc1c(-c2cn(CC(=O)Nc3cc(N4CCN(C)C[C@@H]4C)nc(F)c3Cl)c3nc4n(c(=O)c23)CCC4)cc(C(N)=O)c(O)c1F` [I-91, (S)-5-(1-(2-((3-chloro-6-(2,4-dimethylpipera-zin-1-yl)-2-fluoro-pyridin-4-yl)amino)-2-oxoethyl)-4-oxo-4,6,7,8-tetrahydro-1H-dipyrrolo [1,2-a:2′,3′-d]pyrimidin-3-yl)-3-fluoro-2-hydroxy-4-methoxy-benzamide] here?
The Kd was 0.0947 µM.

And the IC50 [2]?
The IC50 was 1.03 µM.

What about the EC50 [3] of the same compound?
The EC50 was 1.79 µM.

`C[C@H]1CN(C)CCN1c1cc(NC(=O)Cn2cc(-c3cc(C(N)=O)c(O)c4c3OCO4)c3c(=O)n4c(nc32)CC(C)(C)C4)c(Cl)c(F)n1` [I-92, (S)-7-(1-(2-((3-chloro-6-(2,4-dimethylpipera-zin-1-yl)-2-fluoro-pyridin-4-yl)amino)-2-oxoethyl)-7,7-dimethyl-4-oxo-4,6,7,8-tetra-hydro-1H-dipyrrolo [1,2-a:2′,3′-d]pyrimi-din-3-yl)-4-hydroxy-benzo[d][1,3]dioxole-5-carboxamide] was tested. Which Kd [1] did it give?
The Kd was 0.00087 µM.

And the IC50 [2, 4]?
The IC50 was 0.0124 µM.

And the EC50 [3, 5]?
Its EC50 is 0.00922 µM.

Which Kd [1] does the source give for `C[C@H]1CNCCN1c1cc(NC(=O)Cn2cc(-c3cc(F)c(O)c(C(N)=O)c3)c3c(=O)n4c(nc32)CCC4)c(Cl)c(F)n1` [I-93, (S)-5-(1-(2-((3-chloro-2-fluoro-6-(2-methyl-piperazin-1-yl)pyridin-4-yl)amino)-2-oxoethyl)-4-oxo-4,6,7,8-tetrahydro-1H-dipyrrolo[1,2-a:2′,3′-d]pyrimidin-3-yl)-3-fluoro-2-hydroxy-benzamide] here?
The Kd was 0.00179 µM.

And the IC50 [2, 4]?
Its IC50 is 0.14 µM.

What about the EC50 [3, 5] of the same compound?
Its EC50 is 0.0839 µM.

Which Kd [1] does the source give for `C[C@H]1CN(C)CCN1c1cc(NC(=O)Cn2cc(-c3cc(C(N)=O)c(O)c4c3OCO4)c3c(=O)n4c(nc32)COCC4)c(Cl)c(F)n1` [I-94, (S)-7-(1-(2-((3-chloro-6-(2,4-dimethylpipera-zin-1-yl)-2-fluoro-pyridin-4-yl)amino)-2-oxoethyl)-4-oxo-4,6,7,9-tetrahydro-1H-pyrrolo[2′,3′:4,5]pyri-mido[2,1-c][1,4]oxazin-3-yl)-4-hydroxybenzo [d][1,3]dioxole-5-carboxamide] here?
Its Kd is 0.00133 µM.

And the IC50 [2, 4]?
Its IC50 is 0.0283 µM.

And the EC50 [3, 5]?
The EC50 was 0.0178 µM.

For `COc1c(-c2cn(CC(=O)Nc3cc(N4CCN(C)C[C@@H]4C)nc(F)c3Cl)c3nc4n(c(=O)c23)CCC4)cc(C(N)=O)c(O)c1Cl` [I-95, (S)-3-chloro-5-(1-(2-((3-chloro-6-(2,4-dimethylpiperazin-1-yl)-2-fluoropyridin-4-yl)amino)-2-oxo-ethyl)-4-oxo-4,6,7,8-tetrahydro-1H-dipyrrolo[1,2-a:2′,3′-d]pyrimidin-3-yl)-2-hydroxy-4-methoxy-benzamide], which Kd [1] is on record?
The Kd was 0.45 µM.

And the IC50 [2]?
Its IC50 is 0.993 µM.

And the EC50 [3]?
The EC50 was 0.879 µM.

How did the Kd [1] turn out when `C[C@H]1CNCCN1c1cc(NC(=O)Cn2cc(-c3cc(C(N)=O)c(O)c4c3OCO4)c3c(=O)n4c(nc32)CC(C)(C)C4)c(Cl)c(F)n1` [I-96, (S)-7-(1-(2-((3-chloro-2-fluoro-6-(2-methyl-piperazin-1-yl)pyridin-4-yl)amino)-2-oxo-ethyl)-7,7-dimethyl-4-oxo-4,6,7,8-tetrahydro-1H-dipyrrolo[1,2-a:2′,3′-d]pyrimidin-3-yl)-4-hydroxybenzo[d][1,3] dioxole-5-carboxamide] was run?
The Kd was 0.00096 µM.

What about the IC50 [2] of the same compound?
Its IC50 is 0.0175 µM.

And the EC50 [3]?
Its EC50 is 0.0142 µM.

With `C[C@@H]1CN(C)C[C@H](C)N1c1cc(NC(=O)Cn2cc(-c3cc(C(N)=O)c(O)c(F)c3F)c3c(=O)n4c(nc32)CCC4)c(Cl)c(F)n1` [I-97, 5-(1-(2-((3-chloro-2-fluoro-6-((2R,6S)-2,4,6-trimethylpiperazin-1-yl)pyridin-4-yl)amino)-2-oxoethyl)-4-oxo-4,6,7,8-tetrahydro-1H-dipyrrolo[1,2-a:2′,3′-d]pyrimidin-3-yl)-3,4-difluoro-2-hydroxy-benzamide] as the compound, how does the Kd [1] read?
Its Kd is 0.0119 µM.

What about the IC50 [2] of the same compound?
The IC50 was 0.0635 µM.

What about the EC50 [3] of the same compound?
Its EC50 is 0.0709 µM.

How did the Kd [1] turn out when `C[C@@H]1CN(C)C[C@H](C)N1c1cc(NC(=O)Cn2cc(-c3cc(C(N)=O)c(O)c4c3OCO4)c3c(=O)n4c(nc32)CCC4)c(Cl)c(F)n1` [I-98, 7-(1-(2-((3-chloro-2-fluoro-6-((2R,6S)-2,4,6-trimethylpiperazin-1-yl)pyridin-4-yl)amino)-2-oxoethyl)-4-oxo-4,6,7,8-tetrahydro-1H-dipyrrolo [1,2-a:2′,3′-d]pyrimidin-3-yl)-4-hydroxybenzo [d][1,3]dioxole-5-carboxamide] was run?
The Kd was 0.00096 µM.

What about the IC50 [2] of the same compound?
Its IC50 is 0.00816 µM.

What about the EC50 [3] of the same compound?
The EC50 was 0.00842 µM.
